# Test results taken from US20080213125A1, “Apparatus and Method for Using Ozone as a Disinfectant” (Huawei Technologies Co. LTD., priority 2004, published 2008).
# Values joined by “and” are separate entries in the source; they are usually repeats but may differ in a detail not shown here. Equal values may be shown once. Read-outs that look alike come from different tables or passages of the source.
# What was measured:
# [1] = tested on: Influenza virus; conditions: gaseous, in vivo, 0.5 ppm; cited from earlier work
# [2] = tested on: Hepatitis A virus; conditions: ozone and UV light, cited from earlier work
# [3] = tested on: HSV; test: Experiment #3: reduced ozone doses and high humidity; conditions: high humidity, 20 ppm to 40 ppm, about 15 minutes
# [4] = tested on: Feline calicivirus (FCV); test: Experiment #1: ozone gas exposure of virus on surfaces in a chamber
# [5] = tested on: Venezuelan equine encephalomyelitis virus; conditions: aqueous, 45 minutes, 0.025 mg of ozone per liter; control levels 10 (7.25-7.5); cited from earlier work
# [6] = tested on: T1 phage; conditions: gaseous, 10 minutes, 10 ppm; cited from earlier work
# [7] = tested on: type 39 rhinovirus; conditions: cited from earlier work
# [8] = tested on: HEp-2 cell-associated coxsackievirus A9; conditions: aqueous, 30 seconds, 4.06-4.68 mg/liter; cited from earlier work
# [9] = tested on: Poliovirus; conditions: under similar conditions (about 100 ppm chamber)
# [10] = tested on: Vesicular stomatitis virus (VSV); conditions: 3 to 14 mL of 1.4 mmol/L (65 micrograms/mL) to 1.6 mmoler/L, aqueous; cited from earlier work
# [11] = tested on: Feline calicivirus (FCV)
# [12] = tested on: MS2 coliphage; conditions: aqueous, 20 seconds, ozone demand-free 0.05 M phosphate buffer (pH 6.9) at 22 degrees C.; cited from earlier work
# [13] = tested on: Hepatitis A virus; conditions: aqueous, 60 seconds, 1 mg/L or greater at all pH levels; cited from earlier work
# [14] = tested on: HIV; conditions: serum and serum-supplemented media; tested 0.5 to 4.0 micrograms/ml−1; cited from earlier work
# [15] = tested on: influenza virus
# [16] = tested on: Poliovirus; conditions: high humidity, 20 ppm to 40 ppm, about 15 minutes
# [17] = tested on: viruses
# [18] = tested on: rhinovirus; test: Experiment #4: ozone gas against dried viruses on surfaces; conditions: dried state on glass, plastic, steel, wood and fabric
# [19] = tested on: Polio-viruses; conditions: aqueous, 1.0 to 1.5 mg ozone/liter (dissolved); cited from earlier work
# [20] = tested on: FCV; test: Experiment #3: reduced ozone doses and high humidity; conditions: high humidity, 20 ppm to 40 ppm, about 15 minutes
# [21] = tested on: HEp-2 cell-associated poliovirus (Sabin 1); conditions: cited from earlier work
# [22] = tested on: Poliovirus; conditions: dried state on glass, plastic, steel, wood and fabric
# [23] = tested on: viruses; remark: listed apart in the source
# [24] = tested on: Human rotavirus; conditions: aqueous, 25 μg/ml; cited from earlier work
# [25] = tested on: Influenza virus; conditions: continuous, 0.5 ppm; cited from earlier work
# [26] = target: factor VIII (Homo sapiens, UniProt P00451); conditions: plasma and immunoaffinity-purified preparations; 2 hours, 1,200 ppm; cited from earlier work
# [27] = tested on: Polio-virus 1 (PV1); conditions: steadily flowing water at 20 degrees C. and pH 7; cited from earlier work
# [28] = tested on: Poliovirus; conditions: 0.1-2.0 mg/l, aqueous, cited from earlier work
# [29] = tested on: bacteriophage phi 6; conditions: 3 to 14 mL of 1.4 mmol/L (65 micrograms/mL) to 1.6 mmoler/L, aqueous; cited from earlier work
# [30] = tested on: FV
# [31] = tested on: Polio-virus type 3; conditions: aqueous, 20 seconds, ozone demand-free 0.05 M phosphate buffer (pH 6.9) at 22 degrees C.; cited from earlier work
# [32] = tested on: Influenza virus; conditions: inhaled, 0.5 ppm; cited from earlier work
# [33] = tested on: HSV; test: Experiment #2: ozone inactivation at different locations within a test room; conditions: 28 ppm, 60 minutes exposure; three samples at three locations in test room
# [34] = tested on: Herpes Simplex Virus (HSV); test: Experiment #4: ozone gas against dried viruses on surfaces
# [35] = tested on: HIV Type 1; conditions: 2 hours, 1,200 ppm; cited from earlier work
# [36] = tested on: Human rotavirus; conditions: cited from earlier work
# [37] = tested on: Respiratory syncytial virus; conditions: gaseous, in vitro, 2 hours, 1 ppm; cited from earlier work
# [38] = tested on: corona virus
# [39] = tested on: Mulluscum Contagiosum Virus (MCV)
# [40] = tested on: MCV
# [41] = tested on: Herpes Simplex Virus (HSV); test: Experiment #1: ozone gas exposure of virus on surfaces in a chamber
# [42] = tested on: Influenza virus; conditions: 3 hours (post infection), 0.6 ppm; cited from earlier work
# Chain of factor VIII (P00451 20-2351): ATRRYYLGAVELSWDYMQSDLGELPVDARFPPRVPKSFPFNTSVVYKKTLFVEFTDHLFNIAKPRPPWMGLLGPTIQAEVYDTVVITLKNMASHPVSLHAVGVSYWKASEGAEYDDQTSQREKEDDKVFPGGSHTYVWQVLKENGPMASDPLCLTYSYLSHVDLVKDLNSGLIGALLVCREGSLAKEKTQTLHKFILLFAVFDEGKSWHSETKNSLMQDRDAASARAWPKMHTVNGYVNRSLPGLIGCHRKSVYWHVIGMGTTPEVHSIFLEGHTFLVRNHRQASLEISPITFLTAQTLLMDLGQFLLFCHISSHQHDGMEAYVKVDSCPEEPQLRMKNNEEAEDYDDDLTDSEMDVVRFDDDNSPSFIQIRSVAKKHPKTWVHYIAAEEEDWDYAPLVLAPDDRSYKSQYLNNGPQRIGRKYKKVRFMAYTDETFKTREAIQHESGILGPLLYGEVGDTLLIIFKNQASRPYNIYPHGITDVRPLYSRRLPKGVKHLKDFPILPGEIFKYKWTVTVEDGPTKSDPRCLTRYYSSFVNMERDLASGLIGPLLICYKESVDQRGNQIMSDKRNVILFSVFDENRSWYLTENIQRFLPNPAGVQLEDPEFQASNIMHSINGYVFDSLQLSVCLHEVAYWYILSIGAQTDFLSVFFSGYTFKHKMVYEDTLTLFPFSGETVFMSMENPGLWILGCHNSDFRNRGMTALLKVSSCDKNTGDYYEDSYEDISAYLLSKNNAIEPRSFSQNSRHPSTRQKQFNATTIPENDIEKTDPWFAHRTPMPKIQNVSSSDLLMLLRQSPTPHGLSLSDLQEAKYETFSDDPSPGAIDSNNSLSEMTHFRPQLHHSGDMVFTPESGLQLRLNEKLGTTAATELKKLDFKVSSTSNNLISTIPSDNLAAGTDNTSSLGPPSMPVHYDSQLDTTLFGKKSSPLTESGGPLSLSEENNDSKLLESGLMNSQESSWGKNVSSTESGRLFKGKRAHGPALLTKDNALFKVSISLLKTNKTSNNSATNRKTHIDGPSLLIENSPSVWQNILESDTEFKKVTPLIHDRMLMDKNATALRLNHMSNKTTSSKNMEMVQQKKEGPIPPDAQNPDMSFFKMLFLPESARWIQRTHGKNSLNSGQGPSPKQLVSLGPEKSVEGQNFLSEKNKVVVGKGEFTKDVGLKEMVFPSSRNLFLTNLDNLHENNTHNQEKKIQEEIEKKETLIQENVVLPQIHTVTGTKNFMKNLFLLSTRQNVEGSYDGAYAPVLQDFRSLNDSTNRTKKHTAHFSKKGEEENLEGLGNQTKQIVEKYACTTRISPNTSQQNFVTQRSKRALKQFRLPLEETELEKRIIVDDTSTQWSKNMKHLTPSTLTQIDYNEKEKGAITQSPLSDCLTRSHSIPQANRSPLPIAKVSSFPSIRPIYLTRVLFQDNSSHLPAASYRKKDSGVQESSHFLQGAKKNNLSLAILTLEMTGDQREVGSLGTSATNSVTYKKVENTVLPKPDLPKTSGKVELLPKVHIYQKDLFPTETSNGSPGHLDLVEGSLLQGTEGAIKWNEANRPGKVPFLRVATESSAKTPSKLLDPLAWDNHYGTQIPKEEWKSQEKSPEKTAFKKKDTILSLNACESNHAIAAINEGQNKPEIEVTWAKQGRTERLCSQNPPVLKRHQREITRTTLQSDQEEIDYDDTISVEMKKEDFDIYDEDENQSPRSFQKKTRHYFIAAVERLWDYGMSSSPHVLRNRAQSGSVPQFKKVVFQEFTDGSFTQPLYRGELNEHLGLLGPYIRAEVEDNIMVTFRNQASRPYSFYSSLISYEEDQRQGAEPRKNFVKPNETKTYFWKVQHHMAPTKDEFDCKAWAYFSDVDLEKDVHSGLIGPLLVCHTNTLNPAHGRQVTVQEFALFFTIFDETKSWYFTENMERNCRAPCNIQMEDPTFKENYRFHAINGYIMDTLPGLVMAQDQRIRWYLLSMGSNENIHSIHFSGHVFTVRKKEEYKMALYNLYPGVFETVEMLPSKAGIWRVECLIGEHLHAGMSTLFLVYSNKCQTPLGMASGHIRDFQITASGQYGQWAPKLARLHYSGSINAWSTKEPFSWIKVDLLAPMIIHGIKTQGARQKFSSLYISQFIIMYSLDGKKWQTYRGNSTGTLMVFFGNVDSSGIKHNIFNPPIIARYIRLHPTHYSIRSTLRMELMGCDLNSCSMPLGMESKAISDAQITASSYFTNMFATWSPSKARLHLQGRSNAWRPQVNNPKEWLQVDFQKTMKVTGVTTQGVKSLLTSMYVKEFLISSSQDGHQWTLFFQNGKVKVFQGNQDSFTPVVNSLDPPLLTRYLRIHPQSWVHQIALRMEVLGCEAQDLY
substance,measurement,setting,value
Ozone,Severity of infection,[1],Severity of infection reduced
same,virus titre after depuration,"[2]; from 1.72 log TCID50 ml(−1), within 24 h",[TCID50] ml(−1) to <1 log log TCID50 ml(−1)
same,virus titre after depuration,"[2]; from 3.82 log TCID50 ml(−1), within 48 h",ml(−1) to <1 log TCID50 ml(−1)
same,inactivated,[3],more than 99%
same,reduced the virus,[4]; 100 ppm for 20-30 minutes,more than 99%
same,inactivated virus infectivity,"[4]; 100 ppm, 10 minutes",90-95%
same,inactivation,[5],Inactivation of 10 (6.5) median median cell culture infective doses
same,reduction in number of phages,[6],90% reduction in number of
same,adverse effects in experimental group,"[7]; human, in vivo",placebo groups; no adverse
same,effect on individuals infected with rhinovirus,"[7]; human, in vivo",no effect
same,"viral titres, experimental versus placebo groups","[7]; inhaled, 0.3 ppm, 6 hours per day for five days",No difference in viral titres
same,Effectiveness (inactivation),[8],Inactivated cell-associated
same,inactivation by ozone,[9],inactivated
same,inactivated,[10],Inactivated by greater than 4 log10
same,inactivation by the ozone generator,[11],efficiently inactivated
same,MS2 coliphage inactivated,[12],>99.99% of MS2 coliphage
same,complete inactivation,[13],complete (5 log) inactivation
same,concentration at which complete inactivation of HIV obtained,[14],obtained at 4.0 micrograms/ml−1
same,inactivation (kill) by ozone gas,[15],efficiently inactivate
same,inactivated,[16],more than 99.6%
same,susceptibility of viruses to ozone on surfaces,[17],susceptible
same,virus inactivation in high humidity versus ambient humidity,[17],much more efficiently
same,inactivation (kill) by ozone gas,[18],efficiently inactivate
same,Effectiveness,[19],Dependant on the condition
same,inactivated,[20],99.91%
same,Effectiveness (inactivation),[21],Inactivated cell-associated
same,inactivation (kill) by ozone gas,[22],efficiently inactivate
same,susceptibility of viruses to ozone on surfaces,[23],susceptible
same,virus inactivation in high humidity versus ambient humidity,[23],much more efficiently
same,virus infectivity after exposure,[23],no vilus infectivity could be detected at all
same,decrease of rotavirus infectivity,[24],8 to 9 log10 TCID50/ml.
same,acute virus-induced lung injury & residual lung damage,[25],exposure mitigates acute
same,mitigated the virus-induced acute lung injury,[25],approximately 50%. Ozone
same,proliferation of virus in the lungs as quantitated by infectious virus titers,[25],Ozone exposure did not alter
same,effect on factor VIII activity,[26],Minimal effect on factor VIII
same,Concentration for complete inactivation of PV1,[27],0.13 mg/L
same,"virus inactivated, Step 1",[28]; Step 1: 0.2-1.0 s,Step 1: 95 to 99% of the virus
same,"virus inactivated, Step 2",[28]; Step 2: several minutes,Step 2: remainder inactivated
same,inactivated,[29],Inactivated by greater than 4 log10
same,reduced the virus,[30],more than 99%
same,more inactivation observed with MS2 coliphage than with poliovirus type 3,[31],"inactivated, 1.6 log units more"
same,distribution of viral antigen,[32],well as altered the distribution
same,spread of infection,[32],"less widespread infection, as"
same,HSV inactivated (killed),[33],98% and 99.4% and 97.8%
same,reduced the virus,[34]; 100 ppm for 20 to 30 minutes,more than 99%
same,inactivation (kill) by ozone gas,"[34]; dried state on glass, plastic, steel, wood and fabric",efficiently inactivate
same,inactivation,[35],>11 log inactivation (NB.
same,sensitivity of human rotavirus to inactivation compared with simian rotavirus,[36],strikingly less sensitive to
same,"percentage of cells infected, experimental versus control groups",[37],No difference
same,inactivation (kill) by ozone gas,[38],efficiently inactivate
same,reduced the virus,[39],more than 99%
same,reduced the virus,[40],more than 99%
same,reduced the virus,[41]; 100 ppm for 20-30 minutes,more than 99%
same,inactivated virus infectivity,"[41]; 100 ppm, 10 minutes",90-95%
same,virus growth in nose,[42],Complete inhibition of virus
